Test results taken from ChEMBL document CHEMBL5537115, “New broad-spectrum and potent antibacterial agents with dual-targeting mechanism: Promoting FtsZ polymerization and disrupting bacterial membranes” (Eur J Med Chem, 2024).
In brackets after ≈: the same amount, converted by molar mass. Activity calls are given as the source filed them. No cut-off for these calls is given here.

Experiments:
Staphylococcus aureus [1] = test: Induction of resistance development in Staphylococcus aureus ATCC25923 assessed as fold increase in MIC at 0.5 times MIC measured after 32 days by multi-passage resistance assay relative to control; format: functional; conditions: time 32.0 day
Bacillus subtilis [2] = test: Antibacterial activity against penicillin-susceptible Bacillus subtilis ATCC9372 assessed as bacterial growth inhibition incubated for 20 hrs by CLSI based broth microdilution method; format: functional
[3] = system: Staphylococcus epidermidis; test: Antibacterial activity against penicillin-resistant Staphylococcus epidermidis clinical isolate assessed as bacterial growth inhibition incubated for 20 hrs by CLSI based broth microdilution method; format: functional
Staphylococcus aureus [4] = test: Antibacterial activity against methicillin-resistant Staphylococcus aureus ATCC43300 assessed as bacterial growth inhibition incubated for 20 hrs by CLSI based broth microdilution method; format: functional
Streptococcus pyogenes [5] = test: Antibacterial activity against erythromycin-resistant Streptococcus pyogenes 2 clinical isolate assessed as bacterial growth inhibition incubated for 20 hrs by CLSI based broth microdilution method; format: functional
Enterococcus faecalis [6] = test: Antibacterial activity against vancomycin-resistant Enterococcus faecalis ATCC51299 assessed as bacterial growth inhibition incubated for 20 hrs by CLSI based broth microdilution method; format: functional
Enterococcus faecium [7] = test: Antibacterial activity against vancomycin-susceptible Enterococcus faecium ATCC19434 assessed as bacterial growth inhibition incubated for 20 hrs by CLSI based broth microdilution method; format: functional
Acinetobacter baumannii [8] = test: Antibacterial activity against Acinetobacter baumannii ATCC19606 assessed as bacterial growth inhibition incubated for 20 hrs by CLSI based broth microdilution method; format: functional
Enterococcus faecalis [9] = test: Antibacterial activity against vancomycin-susceptible Enterococcus faecalis ATCC29212 assessed as bacterial growth inhibition incubated for 20 hrs by CLSI based broth microdilution method; format: functional
Bacillus subtilis [10] = test: Antibacterial activity against penicillin-susceptible Bacillus subtilis ATCC9372 incubated for 18 to 24 hrs; format: functional; conditions: time 18-24 hrs
Staphylococcus aureus [11] = test: Antibacterial activity against erythromycin-susceptible Staphylococcus aureus ATCC25923 incubated for 18 to 24 hrs; format: functional; conditions: time 18-24 hrs
Escherichia coli [12] = test: Antibacterial activity against penicillin-susceptible Escherichia coli ATCC25922 assessed as bacterial growth inhibition incubated for 20 hrs by CLSI based broth microdilution method; format: functional
Staphylococcus aureus [13] = test: Antibacterial activity against Staphylococcus aureus clinical isolate assessed as bacterial growth inhibition incubated for 20 hrs by CLSI based broth microdilution method; format: functional
Staphylococcus aureus [14] = test: Antibacterial activity against erythromycin-susceptible Staphylococcus aureus ATCC25923 assessed as bacterial growth inhibition incubated for 20 hrs by CLSI based broth microdilution method; format: functional
Staphylococcus aureus [15] = test: Selectivity ratio of MBC for erythromycin-susceptible Staphylococcus aureus ATCC25923 to MIC for erythromycin-susceptible Staphylococcus aureus ATCC25923; format: functional
Staphylococcus aureus [16] = test: Selectivity ratio of MBC for Staphylococcus aureus clinical isolate to MIC for Staphylococcus aureus clinical isolate; format: functional
Staphylococcus aureus [17] = test: Selectivity ratio of MBC for methicillin-resistant Staphylococcus aureus ATCC43300 to MIC for methicillin-resistant Staphylococcus aureus ATCC43300; format: functional
Bacillus pumilus = test: Antibacterial activity against penicillin-susceptible Bacillus pumilus CMCC63202 assessed as bacterial growth inhibition incubated for 20 hrs by CLSI based broth microdilution method; format: functional
Bacillus subtilis [18] = test: Selectivity ratio of MBC for penicillin-susceptible Bacillus subtilis ATCC9372 to MIC for penicillin-susceptible Bacillus subtilis ATCC9372; format: functional
Staphylococcus aureus [19] = test: Antibacterial activity against methicillin-resistant Staphylococcus aureus ATCC43300 incubated for 18 to 20 hrs; format: functional; conditions: time 18-20 hrs
Acinetobacter baumannii [20] = test: Selectivity ratio of MBC for Acinetobacter baumannii ATCC19606 to MIC for Acinetobacter baumannii ATCC19606; format: functional
Enterococcus faecium [21] = test: Antibacterial activity against vancomycin-resistant Enterococcus faecium ATCC51559 assessed as bacterial growth inhibition incubated for 20 hrs by CLSI based broth microdilution method; format: functional
Streptococcus pyogenes [22] = test: Antibacterial activity against erythromycin-susceptible Streptococcus pyogenes 1 assessed as bacterial growth inhibition incubated for 20 hrs by CLSI based broth microdilution method; format: functional
Staphylococcus aureus [23] = test: Antibacterial activity against penicillin-resistant Staphylococcus aureus ATCC31007 assessed as bacterial growth inhibition incubated for 20 hrs by CLSI based broth microdilution method; format: functional
Acinetobacter baumannii [24] = test: Antibacterial activity against Acinetobacter baumannii ATCC19606 incubated for 18 to 24 hrs; format: functional; conditions: time 18-24 hrs
Staphylococcus aureus [25] = test: Antibacterial activity against Staphylococcus aureus clinical isolate incubated for 18 to 24 hrs; format: functional; conditions: time 18-24 hrs
Escherichia coli [26] = test: Antibacterial activity against wild-type Escherichia coli BW25113 assessed as bacterial growth inhibition incubated for 20 hrs by CLSI based broth microdilution method; format: functional
Klebsiella pneumoniae = test: Antibacterial activity against Klebsiella pneumoniae ATCC BAA-1902 assessed as bacterial growth inhibition incubated for 20 hrs by CLSI based broth microdilution method; format: functional
Staphylococcus aureus [27] = test: Effect on proton gradient of cytoplasmic membrane in Staphylococcus aureus ATCC25923 at 1 ug/ml measured after 20 mins by diSC35 dye based analysis; format: functional, organism-based; conditions: Cytoplasm membrane, dose 1.0 µg/ml
Staphylococcus aureus [28] = test: Disruption of inner membrane in Staphylococcus aureus ATCC25923 at 0.5 ug/ml measured after 12 mins by PI staining based analysis; format: functional, organism-based; conditions: dose 0.5 µg/ml
Escherichia coli [29] = test: Disruption of outer membrane in Escherichia coli ATCC25922 at 16 ug/ml measured after 10 mins by NPN dye based analysis; format: functional, organism-based; conditions: dose 16.0 µg/ml

| SMILES | MIC (Bacillus subtilis [2]) | MIC [3] | MIC (Staphylococcus aureus [4]) | MIC (Streptococcus pyogenes [5]) | MIC (Enterococcus faecalis [6]) | MIC (Enterococcus faecium [7]) | MIC (Acinetobacter baumannii [8]) | MIC (Enterococcus faecalis [9]) | MBC (Bacillus subtilis [10]) | MBC (Staphylococcus aureus [11]) | MIC (Escherichia coli [12]) | MIC (Staphylococcus aureus [13]) | MIC (Staphylococcus aureus [14]) | MIC (Bacillus pumilus) | MBC (Staphylococcus aureus [19]) | MIC (Enterococcus faecium [21]) | MIC (Streptococcus pyogenes [22]) | MIC (Staphylococcus aureus [23]) | MIC (Escherichia coli [26]) | MIC (Klebsiella pneumoniae) | further results |
| --- | --- | --- | --- | --- | --- | --- | --- | --- | --- | --- | --- | --- | --- | --- | --- | --- | --- | --- | --- | --- | --- |
| CO[C@H]1/C=C/O[C@@]2(C)Oc3c(C)c(O)c4c(O)c(c(/C=N/N5CCN(C)CC5)c(O)c4c3C2=O)NC(=O)/C(C)=C\C=C\[C@H](C)[C@H](O)[C@@H](C)[C@@H](O)[C@@H](C)[C@H](OC(C)=O)[C@@H]1C | – | – | – | – | – | – | – | – | – | – | – | – | – | – | – | – | – | – | – | – | fold change (FC) (Staphylococcus aureus [1]): 8192 |
| Cc1ccccc1-c1c[n+](C)c(-c2ccc(C(C)(C)C)cc2)cc1/C=C/c1ccc(N(C)C)cc1.[I-] | 0.5 µg/mL | 1 µg/mL | 0.5 µg/mL | 2 µg/mL | 2 µg/mL | 1 µg/mL | 1 µg/mL | 2 µg/mL | 2 µg/mL | 0.25 µg/mL | 4 µg/mL | 0.25 µg/mL | 0.125 µg/mL | 0.5 µg/mL | 0.5 µg/mL | 0.5 µg/mL | 2 µg/mL | 1 µg/mL | 2 µg/mL | 16 µg/mL | Ratio (Staphylococcus aureus [15]): 2; Ratio (Staphylococcus aureus [16]): 4; Ratio (Staphylococcus aureus [17]): 1; Ratio (Bacillus subtilis [18]): 4; Ratio (Acinetobacter baumannii [20]): 2; MBC (Acinetobacter baumannii [24]): 2 µg/mL; MBC (Staphylococcus aureus [25]): 1 µg/mL |
| C[n+]1ccc(/C=C/c2ccccc2)c(-c2ccccc2)c1 | – | – | – | – | – | – | – | – | – | – | – | – | – | – | – | – | – | – | – | – | Activity (Staphylococcus aureus [27]): inactive |
| CC(=O)NC[C@H]1CN(c2ccc(N3CCOCC3)c(F)c2)C(=O)O1 [LINEZOLID] | 0.5 µg/mL (≈ 1.48 µM) | 4 µg/mL (≈ 11.9 µM) | – | 1 µg/mL (≈ 2.96 µM) | – | 8 µg/mL (≈ 23.7 µM) | > 64 µg/mL | – | 64 µg/mL (≈ 190 µM) | > 64 µg/mL | > 64 µg/mL | – | – | 2 µg/mL (≈ 5.93 µM) | 8 µg/mL (≈ 23.7 µM) | 4 µg/mL (≈ 11.9 µM) | 1 µg/mL (≈ 2.96 µM) | – | > 64 µg/mL | > 64 µg/mL | MBC (Acinetobacter baumannii [24]): > 64 µg/mL; MBC (Staphylococcus aureus [25]): > 64 µg/mL |
| C[n+]1cc(-c2ccccc2)c(/C=C/c2ccccc2)cc1-c1ccc(C(C)(C)C)cc1 | – | – | – | – | – | – | – | – | – | – | – | – | – | – | – | – | – | – | – | – | Activity (Staphylococcus aureus [28]): Active; Activity (Staphylococcus aureus [27]): inactive; Activity (Escherichia coli [29]): Active |
| C[n+]1cc2c3c(ccc2c2ccc4cc5c(cc4c21)OCO5)OCO3 | 4 µg/mL | 8 µg/mL | 8 µg/mL | 2 µg/mL | 32 µg/mL | 64 µg/mL | 64 µg/mL | 16 µg/mL | 64 µg/mL | > 64 µg/mL | 32 µg/mL | 8 µg/mL | 4 µg/mL | 4 µg/mL | > 64 µg/mL | 32 µg/mL | 2 µg/mL | 16 µg/mL | 64 µg/mL | 64 µg/mL | Ratio (Staphylococcus aureus [15]): >32; Ratio (Bacillus subtilis [18]): 16; MBC (Acinetobacter baumannii [24]): > 64 µg/mL; MBC (Staphylococcus aureus [25]): > 64 µg/mL |
| C[n+]1cc(-c2ccccc2)c(/C=C/c2ccc(C(C)(C)C)cc2)cc1-c1ccccc1.[I-] | 0.5 µg/mL | 2 µg/mL | 0.5 µg/mL | 2 µg/mL | 4 µg/mL | 4 µg/mL | 4 µg/mL | 4 µg/mL | – | – | 8 µg/mL | 0.5 µg/mL | 0.25 µg/mL | 2 µg/mL | – | 2 µg/mL | 2 µg/mL | 4 µg/mL | 8 µg/mL | 32 µg/mL | Activity (Staphylococcus aureus [28]): Active; Activity (Staphylococcus aureus [27]): inactive; Activity (Escherichia coli [29]): Active |
| Cc1cc(-c2ccccc2)[n+](C)cc1-c1ccccc1 | – | – | – | – | – | – | – | – | – | – | – | – | – | – | – | – | – | – | – | – | Activity (Staphylococcus aureus [27]): inactive |
| CN(C)c1ccc(/C=C/c2cc(-c3ccc(C(C)(C)C)cc3)[n+](C)cc2-c2ccccc2)cc1.[I-] | 0.125 µg/mL | 1 µg/mL | 0.25 µg/mL | 2 µg/mL | 2 µg/mL | 2 µg/mL | 1 µg/mL | 2 µg/mL | 2 µg/mL | 1 µg/mL | 4 µg/mL | 0.125 µg/mL | 0.125 µg/mL | 0.25 µg/mL | 1 µg/mL | 2 µg/mL | 2 µg/mL | 0.5 µg/mL | 8 µg/mL | 8 µg/mL | Ratio (Staphylococcus aureus [15]): 8; Ratio (Staphylococcus aureus [16]): 4; Ratio (Bacillus subtilis [18]): 16; Ratio (Acinetobacter baumannii [20]): 4; MBC (Acinetobacter baumannii [24]): 4 µg/mL; MBC (Staphylococcus aureus [25]): 1 µg/mL |
